The values below come from patent US20030083501A1, “Process for preparing paroxetine HCl which limits formation of pink colored compounds” (priority 2001, published 2003).

Counter-ions that a name gives are not always drawn.

Common to all, as to format: physicochemical
A short description of data set [1]: Visual analysis of the colour of a paroxetine HCl solution. The note with it: 2 mg/ml paroxetine HCl in 0.05M di-Potassium hydrogen phosphate buffer and 35% acetonitrile, standing 20 minutes. Here is the method:
One visual analysis can be carried out by preparing a solution of about 2 mg/ml of paroxetine HCl prepared in a mixture of about 0.05M di-Potassium hydrogen phosphate buffer and about 35% of acetonitrile. […] Preferably, the solution of the paroxetine HCl of the present invention is color free for at least about 20 minutes. On the other hand, available commercial products usually produce a pink colored solution under similar conditions. To test the purity of the final product, a 2 mg/ml solution of paroxetine HCl was prepared in a mixture of 0.05M di-Potassium hydrogen phosphate buffer and 35% of acetonitrile.

Data set [2] can be described thus: HPLC content of the impurity at RRT about 1.5 after storage. To be noted: storage for 4 days at 55° C., UV 285 nm, b52 gives such levels as HPLC area percentage, HCl. The text has this: Without being bound by theory, it is believed that impurities in paroxetine hydrochloride play a role in the color change to pink. The level of the impurities in paroxetine that are associated with a color change to pink can be analyzed in two different manners. One approach is a simple visual analysis, i.e., observing if a sample of paroxetine HCl has turned pink. Another approach is to measure the degree of an impurity identified by a high pressure liquid chromatography (“HPLC”) relative retention time (“RRT”) of about 1.5. The different UV-spectrum characteristic of this impurity has linked the impurity to the development of a pink color. […] Purification steps to remove this impurity such as by crystallization, extraction, chromatography or other separation procedures are often ineffective. The paroxetine hydrochloride of the present process is substantially free of impurities associated with a color change to pink, and is less susceptible, if at all, to develop a pink color overtime These impurities include the impurity identified by an HPLC RRT of about 1.5. Retention time refers to the time required for a compound to pass from the point of injection to the detector. […] Detected by U.V. spectroscopy at λ=285 nm.

A short description of data set [3]: Visual analysis of the colour of solid paroxetine HCl during storage. To be noted: storage for at least one month at 55° C. Here is the method: Another visual analysis can be carried out by observing the color of paroxetine hydrochloride during storage. Preferably, the paroxetine HCl of the present invention is substantially free compounds associated with a pink color for at least four days at a temperature of about 55° C. and a relative humidity of about 60-80%. One of skill in the art can appreciate that the level of the compounds associated with a pink color can vary according to the temperature and other conditions used for storage.
Paroxetine HCl (approximately 4 grams) was dissolved in toluene(40 ml) at reflux. Ascorbic acid (40 mg) and active carbon SX1 (200 mg) were added to the solution and stirred for 5-10 minutes. The solution was then filtered. The filtrate was cooled to 2-4° C., stirred for approximately 1 hour and filtered again to separate a formed precipitate. The solid precipitate was washed with toluene (4 ml) and dried at a temperature of 60° C. under vacuum to give white (color-free) product (3.4 grams). The product was color-free during storage for at least one month at a temperature of 55° C., and yielded solutions (carried out in the same manner as example 1) that were also color-free.

For the compound `Fc1ccc([C@@H]2CCNC[C@H]2COc2ccc3c(c2)OCO3)cc1` [Example 1, paroxetine HCl], the “development of a pink color in solution” value in data set [1] is reported as “did not develop a pink color”.
On to `Fc1ccc([C@@H]2CCNC[C@H]2COc2ccc3c(c2)OCO3)cc1` [Example 2, paroxetine HCl], for which the “content of the impurity at RRT about 1.5 after storage” value in data set [2] was found to be 0.02.
Same read-out and setting: as for `Fc1ccc([C@@H]2CCNC[C@H]2COc2ccc3c(c2)OCO3)cc1` [Example 3, paroxetine HCl], the figure is 0.23.
Consider `Fc1ccc([C@@H]2CCNC[C@H]2COc2ccc3c(c2)OCO3)cc1` [Example 5, Paroxetine HCl], for which the “development of a pink color in solution” value in data set [1] is “color-free”. In addition, the “color of the product during storage” value in data set [3] was “color-free”.
